Experimental findings from patent publication US4843089A, “Antimycotic agent” (Bayer Aktiengesellschaft, priority 1984, dated 1989) are described below.

One experiment concerns Candida. Briefly: Antimycotic in vivo activity (oral) on candidosis of mice. The arrangement: species or system mice (SPF-CF1). To be noted: in words, 25-100 mg/kg, versus compounds (A) and (B). As for the experimental part:
Mice of the SPF-CF1 type were infected intravenously with 1-2×10^6 logarithmically growing Candida cells suspended in physiological saline solution. The animals were treated orally with in each case 25-100 mg of the products/kg of body weight one hour before and seven hours after infection. Untreated animals died 3 to 6 days after infection. The survival rate on the 6th day after infection was about 5% in the untreated control animals.

Experiment [1] concerns dermatophytes, molds and yeasts. Briefly: Antimycotic in vitro activity, series dilution test (overall comparison with compound (B)). It counts as cell-based. The note with it: in words; versus compound (B) known from the prior art. As for the experimental part:
The in vitro tests were carried out in a series dilution test using germ inocular of on average 5×10^3 to 10^4 germs/ml of substrate. The nutrient medium used was (a) for dermatophytes and molds. Sabourand's milieu d'epreuve (b) for yeasts: meat extract/glucose broth. The incubation temperature was 28° C. to 37° C. and the incubation period was 24 to 96 hours for yeasts and 96 hours for dermatophytes and molds.

Experiment [2] concerns Trichophyton von mentagrophytes. Briefly: Antimicrobial in vivo activity (local), experimental trichophytosis in guinea pigs. To be noted: 0.1% strength solution, 1x daily.

In the case of `CON=CC(C)(C)C(O)(C#Cc1ccc(Cl)cc1Cl)Cn1cncn1` (stereo not shown) [Example 13], in the experiment on Candida, the “action against candidosis of mice compared with compounds (A) and (B)” value (“action … compared with compounds (A) and (B)” below) is “better action than compounds (A) and (B)”. Moreover, the “antimycotic action in vitro compared with compound (B)” value in experiment [1] is recorded as “better antimycotic action than compound (B)”.
On to `CON=CC(C)(C)C(O)(COc1ccc(Cl)cc1Cl)Cn1cncn1` (stereo not shown) [Example 24], for which, in the experiment on Candida, the “action … compared with compounds (A) and (B)” value was “better action than compounds (A) and (B)”.
Turning to `CON=CC(C)(C)C(O)(CSc1ccc(Cl)cc1)Cn1cncn1` (stereo not shown) [Example 32], the “action … compared with compounds (A) and (B)” value with Candida is “better action than compounds (A) and (B)”. The “antimycotic action in vitro compared with compound (B)” value in experiment [1] is “better antimycotic action than compound (B)”. In addition, the “action (local) on experimental trichophytosis, in words” value (from here on “action (local)”) in experiment [2] was “good action”.
In the case of `CCCC(O)(Cn1cncn1)C(C)(C)C=NOCc1ccc(Cl)cc1` (stereo not shown) [Example 41], the “antimycotic action in vitro compared with compound (B)” value in experiment [1] is given as “better antimycotic action than compound (B)”.
Take `CON=CC(C)(C)C(O)(CSc1ccc(Cl)cc1)Cn1ccnc1` (stereo not shown) [Example 20]: the “action … compared with compounds (A) and (B)” value in the experiment on Candida is “better action than compounds (A) and (B)”. Also, the “antimycotic action in vitro compared with compound (B)” value in experiment [1] is on record as “better antimycotic action than compound (B)”. Moreover, the “action (local)” value in experiment [2] is “good action”.
As to `CON=CC(C)(C)C(O)(C#Cc1ccc(-c2ccccc2)cc1)Cn1cncn1` (stereo not shown) [Example 12], the “action … compared with compounds (A) and (B)” value in the experiment with Candida is “better action than compounds (A) and (B)”. Further, the “antimycotic action in vitro compared with compound (B)” value in experiment [1] is on record as “better antimycotic action than compound (B)”.
Consider `CON=CC(C)(C)C(O)(CCc1ccc(Cl)cc1)Cn1cncn1` (stereo not shown) [Example 22], for which the “antimycotic action in vitro compared with compound (B)” value in experiment [1] was “better antimycotic action than compound (B)”. Also, in experiment [2], the “action (local)” value was “good action”.
`CC(C)(C=O)C(O)(CCc1ccc(Cl)cc1)Cn1ccnc1` (stereo not shown) [Example 16]: the “action … compared with compounds (A) and (B)” value in the experiment with Candida was “better action than compounds (A) and (B)”.
In the case of `CC(C)(C=NOCc1ccc(Cl)cc1)C(O)(CCc1ccc(Cl)cc1)Cn1cncn1` (stereo not shown) [Example 28], the “action … compared with compounds (A) and (B)” value with Candida is “better action than compounds (A) and (B)”. Moreover, the “antimycotic action in vitro compared with compound (B)” value in experiment [1] is “better antimycotic action than compound (B)”.
Take `CCC(O)(Cn1cncn1)C(C)(C)C=NOCc1ccc(Cl)cc1` (stereo not shown) [Example 43]: the “antimycotic action in vitro compared with compound (B)” value in experiment [1] is reported as “better antimycotic action than compound (B)”.
Regarding `CCCON=CC(C)(C)C(O)(Cn1cncn1)c1ccc(Cl)cc1` (stereo not shown) [Example 38], the “action … compared with compounds (A) and (B)” value with Candida is “better action than compounds (A) and (B)”. In addition, the “antimycotic action in vitro compared with compound (B)” value in experiment [1] was “better antimycotic action than compound (B)”. Also, in experiment [2], the “action (local)” value is “good action”.
Regarding `CCCCC(O)(Cn1cncn1)C(C)(C)C=NOCC1CCCCC1` (stereo not shown) [Example 45], the “antimycotic action in vitro compared with compound (B)” value in experiment [1] is recorded as “better antimycotic action than compound (B)”.
Still for that read-out and setting: to `C=CCON=CC(C)(C)C(O)(Cn1cncn1)c1ccc(-c2ccccc2)cc1` (stereo not shown) [Example 36] belongs “better antimycotic action than compound (B)”.
On the same count and under the same terms, the entry for `CCCCC(O)(Cn1cncn1)C(C)(C)C=NOCc1ccc(Cl)cc1Cl` (stereo not shown) [Example 47] is “better antimycotic action than compound (B)”.
Regarding `CCCCON=CC(C)(C)C(O)(Cn1cncn1)c1ccc(Cl)cc1` (stereo not shown) [Example 40], the “action … compared with compounds (A) and (B)” value in the experiment on Candida was “better action than compounds (A) and (B)”. Also, the “action (local)” value in experiment [2] is recorded as “good action”.
For `C=CCON=CC(C)(C)C(O)(CSc1ccc(Cl)cc1)Cn1cncn1` (stereo not shown) [Example 33], the “antimycotic action in vitro compared with compound (B)” value in experiment [1] was “better antimycotic action than compound (B)”.
As for `CC(C)(C=NOCc1ccc(Cl)cc1)C(O)(COc1ccc(Cl)c(Cl)c1)Cn1cncn1` (stereo not shown) [Example 30], the “antimycotic action in vitro compared with compound (B)” value in experiment [1] is recorded as “better antimycotic action than compound (B)”.
The same measure, in the same setting: the entry for `CON=CC(C)(C)C(O)(CSc1ccc(Br)cc1)Cn1ccnc1` (stereo not shown) [Example 21] is “better antimycotic action than compound (B)”.
On to `CON=CC(C)(C)C(O)(C#Cc1ccc(Cl)cc1)Cn1cncn1` (stereo not shown) [Example 10], for which, in the experiment with Candida, the “action … compared with compounds (A) and (B)” value was “better action than compounds (A) and (B)”. For the same compound, the “antimycotic action in vitro compared with compound (B)” value in experiment [1] is reported as “better antimycotic action than compound (B)”.
In the case of `CC(C)(C=O)C(O)(COc1ccc(-c2ccccc2)cc1)Cn1cncn1` (stereo not shown) [Example 5], in the experiment on Candida, the “action … compared with compounds (A) and (B)” value was “better action than compounds (A) and (B)”.
As for `CC(C)(C=NOCc1ccc(Cl)cc1Cl)C(O)(CCc1ccc(Cl)cc1)Cn1cncn1` (stereo not shown) [Example 29], the “antimycotic action in vitro compared with compound (B)” value in experiment [1] is on record as “better antimycotic action than compound (B)”.
As for `CON=CC(C)(C)C(O)(Cn1cncn1)c1ccc(-c2ccccc2)cc1` (stereo not shown) [Example 35], the “antimycotic action in vitro compared with compound (B)” value in experiment [1] is listed as “better antimycotic action than compound (B)”.
For the compound `CON=CC(C)(C)C(O)(Cn1cncn1)c1ccc(Cl)cc1` (stereo not shown) [Example 37], the “action … compared with compounds (A) and (B)” value in the experiment with Candida was “better action than compounds (A) and (B)”. In addition, the “antimycotic action in vitro compared with compound (B)” value in experiment [1] is listed as “better antimycotic action than compound (B)”. For the same compound, the “action (local)” value in experiment [2] is listed as “good action”.
Take `CC(C)(C=O)C(O)(CCc1ccc(Cl)cc1)Cn1cncn1` (stereo not shown) [Example 7]: the “antimycotic action in vitro compared with compound (B)” value in experiment [1] is listed as “better antimycotic action than compound (B)”.
As for `CON=CC(C)(C)C(O)(COc1ccc(Cl)cc1)Cn1cncn1` (stereo not shown) [Example 4], the “action … compared with compounds (A) and (B)” value in the experiment on Candida is “better action than compounds (A) and (B)”. In addition, the “antimycotic action in vitro compared with compound (B)” value in experiment [1] is recorded as “better antimycotic action than compound (B)”.
Turning to `CC(C)(C=O)C(O)(CCc1ccc(Cl)cc1Cl)Cn1cncn1` (stereo not shown) [Example 8], in the experiment with Candida, the “action … compared with compounds (A) and (B)” value is “better action than compounds (A) and (B)”.
`CCCC(O)(Cn1cncn1)C(C)(C)C=NOCc1ccc(Cl)cc1Cl` (stereo not shown) [Example 42]: in experiment [1], the “antimycotic action in vitro compared with compound (B)” value was “better antimycotic action than compound (B)”.
For `CC(C)(C=NOCC1CCCCC1)C(O)(Cn1cncn1)c1ccc(Cl)cc1` (stereo not shown) [Example 39], in the experiment on Candida, the “action … compared with compounds (A) and (B)” value is “better action than compounds (A) and (B)”.
`CC(C)(C=O)C(O)(C#Cc1ccc(-c2ccccc2)cc1)Cn1cncn1` (stereo not shown) [Example 11]: in experiment [1], the “antimycotic action in vitro compared with compound (B)” value is reported as “better antimycotic action than compound (B)”.
Same read-out and setting: the entry for `CON=CC(C)(C)C(O)(CSc1ccc(C(F)(F)F)c(Cl)c1)Cn1cncn1` (stereo not shown) [Example 17] is “better antimycotic action than compound (B)”.
Take `CC(C)(C=O)C(O)(CSc1ccc(Br)cc1)Cn1cncn1` (stereo not shown) [Example 19]: in experiment [1], the “antimycotic action in vitro compared with compound (B)” value is recorded as “better antimycotic action than compound (B)”.
As to `CCCCON=CC(C)(C)C(O)(CCc1ccc(Cl)cc1)Cn1cncn1` (stereo not shown) [Example 23], the “action … compared with compounds (A) and (B)” value in the experiment with Candida was “better action than compounds (A) and (B)”. Besides, the “antimycotic action in vitro compared with compound (B)” value in experiment [1] is “better antimycotic action than compound (B)”.
On to `CON=CC(C)(C)C(O)(CSc1ccc(Br)cc1)Cn1cncn1` (stereo not shown) [Example 18], for which the “action … compared with compounds (A) and (B)” value with Candida is “better action than compounds (A) and (B)”. In addition, the “antimycotic action in vitro compared with compound (B)” value in experiment [1] was “better antimycotic action than compound (B)”. Also, the “action (local)” value in experiment [2] is reported as “good action”.
Consider `CCCCC(O)(Cn1cncn1)C(C)(C)C=NOCc1ccc(Cl)cc1` (stereo not shown) [Example 46], for which the “antimycotic action in vitro compared with compound (B)” value in experiment [1] is “better antimycotic action than compound (B)”.
